The record followed here is ChEMBL document CHEMBL1138350, “Allosteric modulation of the dopamine receptor by conformationally constrained type VI beta-turn peptidomimetics of Pro-Leu-Gly-NH2” (J Med Chem, 2007).

Format in all cases: cell membranes
Holding throughout (conditions): Striatum

The species entered for test [1] is Bos taurus. Description: Enhancement of [3H]NPA binding to dopamine receptor in bovine striatal membrane at 100 nM.
The species entered for test [2] is Bos taurus. Description: Enhancement of [3H]NPA binding to dopamine receptor in bovine striatal membrane at 10 nM.
For test [3], the species on record is Bos taurus. Description: Enhancement of [3H]NPA binding to dopamine receptor in bovine striatal membrane at 1 uM.

Calls of active or inactive are those of the source. The calls are words filed in the database; no cut-off is given here. Peptide text beside a SMILES is read from it.

Turning to `NC(=O)[C@@H]1CCCN1C(=O)[C@@H]1CCCN1C(=O)[C@@H]1CCCN1` (H-Pro-Pro-Pro-NH2), in the test listed under Bos taurus [1], the Activity stood at 34%.
In the case of `CC(C)C[C@@]1(NC(=O)[C@@H]2CCCN2)CC[C@@]2(C(N)=O)CCCN2C1=O`, the outcome in the test filed under Bos taurus [2] and in the test filed under Bos taurus [3] was Active. Also, the Activity in the test filed under Bos taurus [1] stood at 19.5%.
For the compound `NC(=O)[C@]12CCCN1C(=O)[C@@]1(CCCN1C(=O)[C@@H]1CCCN1)CC2`, the Activity in the test listed under Bos taurus [2] was 11.4%.
Consider `NC(=O)[C@H]1CS[C@@H]2CC[C@]3(CCCN3C(=O)[C@@H]3CCCN3)C(=O)N12`, for which the Activity in the test filed under Bos taurus [1] stood at 38.2%.
